Data: paper PMC9233935 (Journal of medicinal chemistry, 2022)
Converted amounts (≈) assume the structure as drawn.

Columns and labels:
[1] = molecular target: Mtb gyrase (Mycobacterium tuberculosis, UniProt P9WG45+P9WG47); test: biochemical; assay type: biochemical
[2] = tested on: gyrA hypomorph (gyrA-FDAS-TetON-1); assay type: cell-based; conditions: fold-hypersensitivity
[3] = tested on: S. aureus ATTC 25923
[4] = tested on: S. aureus ATTC 25923; test: microbe, parasite or virus in culture; conditions: Staphylococcus aureus, ATTC25923, read-out: Sau MIC
[5] = tested on: M. tuberculosis H37Rv; test: microbe, parasite or virus in culture; assay type: cell-based, Mycobacterium tuberculosis

Sequence of Mtb gyrase (P9WG45 whole entry, looked up): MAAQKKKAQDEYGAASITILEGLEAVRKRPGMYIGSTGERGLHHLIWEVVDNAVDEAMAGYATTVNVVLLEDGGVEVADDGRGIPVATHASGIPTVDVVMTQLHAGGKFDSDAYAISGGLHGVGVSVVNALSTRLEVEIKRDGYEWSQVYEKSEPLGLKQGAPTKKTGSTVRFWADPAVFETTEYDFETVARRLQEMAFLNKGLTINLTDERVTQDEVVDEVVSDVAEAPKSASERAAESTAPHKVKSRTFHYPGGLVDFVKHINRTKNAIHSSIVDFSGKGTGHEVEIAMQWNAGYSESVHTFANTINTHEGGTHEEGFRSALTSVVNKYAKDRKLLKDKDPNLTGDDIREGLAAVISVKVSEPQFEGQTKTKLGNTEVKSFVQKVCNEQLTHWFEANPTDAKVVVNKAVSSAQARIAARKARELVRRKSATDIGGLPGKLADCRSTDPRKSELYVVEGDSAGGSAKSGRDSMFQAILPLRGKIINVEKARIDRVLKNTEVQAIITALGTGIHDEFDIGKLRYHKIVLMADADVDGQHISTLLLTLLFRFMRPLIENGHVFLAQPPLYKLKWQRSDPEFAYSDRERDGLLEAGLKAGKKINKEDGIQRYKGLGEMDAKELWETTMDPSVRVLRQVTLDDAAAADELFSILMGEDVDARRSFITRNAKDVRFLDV
Sequence of Mtb gyrase (P9WG47 whole entry, looked up): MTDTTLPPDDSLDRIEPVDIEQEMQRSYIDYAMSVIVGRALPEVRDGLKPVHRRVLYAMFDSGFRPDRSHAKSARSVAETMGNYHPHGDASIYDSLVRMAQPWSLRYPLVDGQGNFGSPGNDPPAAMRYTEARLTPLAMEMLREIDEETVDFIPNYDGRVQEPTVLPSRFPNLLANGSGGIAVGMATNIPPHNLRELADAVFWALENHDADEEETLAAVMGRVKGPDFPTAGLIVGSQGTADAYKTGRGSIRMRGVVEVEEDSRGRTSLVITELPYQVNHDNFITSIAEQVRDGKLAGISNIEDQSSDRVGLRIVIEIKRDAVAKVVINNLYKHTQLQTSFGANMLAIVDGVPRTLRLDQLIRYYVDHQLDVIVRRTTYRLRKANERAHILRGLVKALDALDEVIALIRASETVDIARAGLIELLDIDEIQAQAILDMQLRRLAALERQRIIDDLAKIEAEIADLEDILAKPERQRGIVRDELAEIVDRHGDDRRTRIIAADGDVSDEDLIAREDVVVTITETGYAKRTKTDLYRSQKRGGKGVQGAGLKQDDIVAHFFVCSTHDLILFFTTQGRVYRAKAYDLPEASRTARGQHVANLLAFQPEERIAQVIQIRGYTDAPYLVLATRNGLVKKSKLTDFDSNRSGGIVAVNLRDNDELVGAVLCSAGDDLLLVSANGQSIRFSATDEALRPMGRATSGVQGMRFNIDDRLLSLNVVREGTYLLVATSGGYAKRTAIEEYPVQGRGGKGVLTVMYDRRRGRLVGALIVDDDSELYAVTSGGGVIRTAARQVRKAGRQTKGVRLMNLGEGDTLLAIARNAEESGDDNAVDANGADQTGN

**Q.** `C[C@@H]1CN2c3c(cc4c(N5CC[C@H](O)C5)noc4c3F)CC3(C(=O)NC(=O)NC3=O)[C@H]2[C@H](C)O1` [Compound 8, (2R,4S,4aS)-11-fluoro-8-((S)-3-hydroxypyrrolidin-1-yl)-2,4-dimethyl-1,2,4,4a-tetrahydro-2’H,6H-spiro[isoxazolo[4,5-g][1,4]oxazino[4,3-a]quinoline-5,5’-pyrimidine]-2’,4’,6’(1’H,3’H)-trione] was tested. Which “Mtb gyrase IC50 fold higher (less potent) than moxifloxacin” value [1] did it give?
**A.** Its value is at most 2 fold.

**Q.** And the “Ratio (WT/hypomorph) MIC” value [2]?
**A.** Its value is 2.5.

**Q.** What about the “Ratio (WT/hypomorph) MIC50” value [2] of the same compound?
**A.** Its value is 3.6.

**Q.** What about the “fold less active against S. aureus than zoliflodacin” value [3] of the same compound?
**A.** The value was over 200 fold.

**Q.** How did the MIC [4] turn out when `C[C@@H]1CN2c3c(cc4c(N5CC[C@@H](O)C5)noc4c3F)CC3(C(=O)NC(=O)NC3=O)[C@H]2[C@H](C)O1` [Compound 9, (2R,4S,4aS)-11-fluoro-8-((R)-3-hydroxypyrrolidin-1-yl)-2,4-dimethyl-1,2,4,4a-tetrahydro-2’H,6H-spiro[isoxazolo[4,5-g][1,4]oxazino[4,3-a]quinoline-5,5’-pyrimidine]-2’,4’,6’(1’H,3’H)-trione] was run?
**A.** The MIC was 64 µM (≈ 30.3 µg/mL).

**Q.** For `C[C@@H]1CN2c3c(cc4c(N5C[C@@H](O)[C@H](O)C5)noc4c3F)CC3(C(=O)NC(=O)NC3=O)[C@H]2[C@H](C)O1` [Compound 10, (2R,4S,4aS)-8-((3R,4R)-3,4-dihydroxypyrrolidin-1-yl)-11-fluoro-2,4-dimethyl-1,2,4,4a-tetrahydro-2’H,6H-spiro[isoxazolo[4,5-g][1,4]oxazino[4,3-a]quinoline-5,5’-pyrimidine]-2’,4’,6’(1’H,3’H)-trione], which “Mtb gyrase IC50 fold higher (less potent) than moxifloxacin” value [1] is on record?
**A.** Its value is at most 2 fold.

**Q.** And the “Ratio (WT/hypomorph) MIC” value [2]?
**A.** The value was 2.1.

**Q.** And the “Ratio (WT/hypomorph) MIC50” value [2]?
**A.** The value was 2.9.

**Q.** How did the MIC [4] turn out when `C[C@@H]1CN2c3c(cc4c(N5C[C@H](O)[C@@H](O)C5)noc4c3F)CC3(C(=O)NC(=O)NC3=O)[C@H]2[C@H](C)O1` [Compound 11, (2R,4S,4aS)-8-((3S,4S)-3,4-dihydroxypyrrolidin-1-yl)-11-fluoro-2,4-dimethyl-1,2,4,4a-tetrahydro-2’H,6H-spiro[isoxazolo[4,5-g][1,4]oxazino[4,3-a]quinoline-5,5’-pyrimidine]-2’,4’,6’(1’H,3’H)-trione] was run?
**A.** The MIC was over 125 µM.

**Q.** With `C[C@@H]1CN2c3c(cc4c(N5C[C@@H](O)[C@@H](O)C5)noc4c3F)CC3(C(=O)NC(=O)NC3=O)[C@H]2[C@H](C)O1` [Compound 12, (2R,4S,4aS)-8-((3R,4S)-3,4-dihydroxypyrrolidin-1-yl)-11-fluoro-2,4-dimethyl-1,2,4,4a-tetrahydro-2’H,6H-spiro[isoxazolo[4,5-g][1,4]oxazino[4,3-a]quinoline-5,5’-pyrimidine]-2’,4’,6’(1’H,3’H)-trione] as the compound, how does the MIC [4] read?
**A.** Its MIC is over 125 µM.

**Q.** What does the source list for `C[C@@H]1CN2c3c(cc4c(N5CC[C@H](N)C5)noc4c3F)CC3(C(=O)NC(=O)NC3=O)[C@H]2[C@H](C)O1` [Compound 16, (2R,4S,4aS)-8-((S)-3-aminopyrrolidin-1-yl)-11-fluoro-2,4-dimethyl-1,2,4,4a-tetrahydro-2’H,6H-spiro[isoxazolo[4,5-g][1,4]oxazino[4,3-a]quinoline-5,5’-pyrimidine]-2’,4’,6’(1’H,3’H)-trione]?
**A.** Mtb gyrase IC50 fold higher (less potent) than moxifloxacin [1]: around 2 fold; fold higher Mtb MIC compared to 8 [5]: 9 to16 fold

**Q.** For `C[C@@H]1CN2c3c(cc4c(N5CCC[C@@H](O)C5)noc4c3F)CC3(C(=O)NC(=O)NC3=O)[C@H]2[C@H](C)O1` [Compound 22, (2R,4S,4aS)-11-fluoro-8-((R)-3-hydroxypiperidin-1-yl)-2,4-dimethyl-1,2,4,4a-tetrahydro-2’H,6H-spiro[isoxazolo[4,5-g][1,4]oxazino[4,3-a]quinoline-5,5’-pyrimidine]-2’,4’,6’(1’H,3’H)-trione], which MIC [4] is on record?
**A.** Its MIC is 94 µM (≈ 45.8 µg/mL).

**Q.** With `C[C@@H]1CN2c3c(cc4c(OC[C@H]5CCC(=O)N5)noc4c3F)CC3(C(=O)NC(=O)NC3=O)[C@H]2[C@H](C)O1` [Compound 24, (2R,4S,4aS)-11-fluoro-2,4-dimethyl-8-(((R)-5-oxopyrrolidin-2-yl)methoxy)-1,2,4,4a-tetrahydro-2’H,6H-spiro[isoxazolo[4,5-g][1,4]oxazino[4,3-a]quinoline-5,5’-pyrimidine]-2’,4’,6’(1’H,3’H)-trione] as the compound, how does the MIC [4] read?
**A.** Its MIC is over 125 µM.

**Q.** For `C[C@@H]1CN2c3c(cc4c(OC[C@@H]5COC(=O)N5)noc4c3F)CC3(C(=O)NC(=O)NC3=O)[C@H]2[C@H](C)O1` [Compound 28, (2R,4S,4aS)-11-fluoro-2,4-dimethyl-8-(((R)-2-oxooxazolidin-4-yl)methoxy)-1,2,4,4a-tetrahydro-2’H,6H-spiro[isoxazolo[4,5-g][1,4]oxazino[4,3-a]quinoline-5,5’-pyrimidine]-2’,4’,6’(1’H,3’H)-trione], which MIC [4] is on record?
**A.** Its MIC is 63 µM (≈ 31.7 µg/mL).

**Q.** How did the IC50 [1] turn out when `C[C@@H]1CN2c3c(cc4c(N5CC[C@H](O)C5)noc4c3F)CC3(C(=O)NC(=O)NC3=O)[C@H]2[C@H](C)N1C#N` [Compound 40, (2R,4S,4aS)-11-fluoro-8-((S)-3-hydroxypyrrolidin-1-yl)-2,4-dimethyl-2’,4’,6’-trioxo-1,1’,2,3’,4,4a,4’,6’-octahydro-2’H,3H,6H-spiro[isoxazolo[4,5-g]pyrazino[1,2-a]quinoline-5,5’-pyrimidine]-3-carbonitrile] was run?
**A.** The IC50 was 19 µM.

**Q.** And the “Ratio (WT/hypomorph) MIC” value [2]?
**A.** Its value is 2.0.

**Q.** And the “Ratio (WT/hypomorph) MIC50” value [2]?
**A.** The value was 3.1.

**Q.** And the MIC [4]?
**A.** The MIC was over 125 µM.

**Q.** For `C[C@@H]1CN2c3c(cc4c(OC[C@@H]5CCC(=O)N5)noc4c3F)CC3(C(=O)NC(=O)NC3=O)[C@H]2[C@H](C)N1C#N` [Compound 42, (2R,4S,4aS)-11-fluoro-2,4-dimethyl-2’,4’,6’-trioxo-8-(((S)-5-oxopyrrolidin-2-yl)methoxy)-1,1’,2,3’,4,4a,4’,6’-octahydro-2’H,3H,6H-spiro[isoxazolo[4,5-g]pyrazino[1,2-a]quinoline-5,5’-pyrimidine]-3-carbonitrile], which IC50 [1] is on record?
**A.** Its IC50 is 2.6 µM.

**Q.** `Cc1nnc(-c2noc3c(F)c4c(cc23)CC2(C(=O)NC(=O)NC2=O)[C@H]2[C@H](C)O[C@H](C)CN42)o1` [Methyl-oxadiazole 5, reference compound] was tested. Which “fold more potent as inhibitor of Mtb gyrase than moxifloxacin” value [1] did it give?
**A.** The value was 5 fold.

**Q.** What about the “fold less active against Mtb than moxifloxacin” value [5] of the same compound?
**A.** The value was 10 fold.

**Q.** What about the MIC ([5]; Mycobacterium tuberculosis, H37RV, read-out: Mtb MIC) of the same compound?
**A.** The MIC was 1.7 µM (≈ 0.8 µg/mL).

**Q.** For “(2R,4S,4aS)-11-fluoro-2,4-dimethyl-8-((S)-3-(methylamino)pyrrolidin-1-yl)-1,2,4,4a-tetrahydro-2’H-spiro[isoxazolo[5’,4’:4,5]benzo[1,2-b][1,4]oxazino[4,3-d][1,4]oxazine-5,5’-pyrimidine]-2’,4’,6’(1’H,3’H)-trione [Compound 17]”, which “Mtb MIC” value [5] is on record?
**A.** The value was 63 µM.

**Q.** What about the “fold higher Mtb MIC compared to 8” value [5] of the same compound?
**A.** The value was 9 to16 fold.

**Q.** What about the “Sau MIC” value [3] of the same compound?
**A.** The value was 125 µM.
